*1 amine or outer side, *2 acyl side, *3 side chain or, on linkers, in order; H or OH if unused. Where no end group is shown, it is not given here. The star is where a group is joined. Fmoc = O=C(OCC1c2ccccc2-c2ccccc21)*; Glutaryl = O=C(CCCC(=O)[*:2])[*:1]; code Z = not defined here
Legend:
[1] = Incorporation into clots induced in a rat model (rat inferior vena cava model); assay type: in vivo, rat (Male Wistar); settings: for % id/g (clot) / Rel. Conc. (cpm/g of clot by dose/g animal): sacrificed after 60 min
Description: The rats (Male Wistar, 250–350 g) were anaesthetised with 15% urethane. After laparotomy, the vena cava was isolated and freed of surrounding fat tissue. […] The compounds were injected 5 min (fresh clot) and 60 min (aged clot) post-induction. After 60 min the animals were sacrificed and the clot removed, weighed and counted. Other tissues e.g. blood, lung, heart, were also dissected and counted. The uptake of tracer into the clot was determined as the relative concentration (cpm/g of clot by dose/g animal) and clot to background tissue.

[2] = target: T1, fibrin (in vitro human plasma clot) (Homo sapiens, UniProt P02671+P02675+P02679); experiment: Incorporation into human plasma clots in vitro; assay type: biochemical; settings: for % specific uptake: % retained (with thrombin) - % retained (no thrombin); for % retained (no thrombin): control without thrombin and calcium chloride (non-specific binding); for % retained (with thrombin): human plasma clot, 60 minutes, ca. 20° C.
T1 construct: about 400 μl of human plasma containing the radiolabelled substrate; from tissue; host or cells: human plasma, clotted in vitro with added thrombin and calcium chloride
T1 sequence (P02671 20-644 isoform P02671-2 limits assumed): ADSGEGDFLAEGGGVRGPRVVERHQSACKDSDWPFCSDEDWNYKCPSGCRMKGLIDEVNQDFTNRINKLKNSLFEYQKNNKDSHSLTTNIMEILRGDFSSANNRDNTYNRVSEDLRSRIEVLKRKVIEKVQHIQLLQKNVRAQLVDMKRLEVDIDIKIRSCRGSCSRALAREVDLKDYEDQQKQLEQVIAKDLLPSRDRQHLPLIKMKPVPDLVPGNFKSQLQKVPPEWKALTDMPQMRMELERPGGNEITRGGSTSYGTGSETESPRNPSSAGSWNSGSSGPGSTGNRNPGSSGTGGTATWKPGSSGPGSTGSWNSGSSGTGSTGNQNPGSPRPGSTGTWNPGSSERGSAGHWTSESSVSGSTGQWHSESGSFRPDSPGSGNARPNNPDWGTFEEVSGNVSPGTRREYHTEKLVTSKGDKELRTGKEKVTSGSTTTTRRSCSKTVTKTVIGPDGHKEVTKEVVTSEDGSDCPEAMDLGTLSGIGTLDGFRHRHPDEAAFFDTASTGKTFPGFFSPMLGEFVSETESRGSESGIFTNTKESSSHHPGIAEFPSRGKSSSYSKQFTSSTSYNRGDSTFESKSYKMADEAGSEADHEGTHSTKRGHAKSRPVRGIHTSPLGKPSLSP
T1 sequence (P02675 45-491 limits assumed): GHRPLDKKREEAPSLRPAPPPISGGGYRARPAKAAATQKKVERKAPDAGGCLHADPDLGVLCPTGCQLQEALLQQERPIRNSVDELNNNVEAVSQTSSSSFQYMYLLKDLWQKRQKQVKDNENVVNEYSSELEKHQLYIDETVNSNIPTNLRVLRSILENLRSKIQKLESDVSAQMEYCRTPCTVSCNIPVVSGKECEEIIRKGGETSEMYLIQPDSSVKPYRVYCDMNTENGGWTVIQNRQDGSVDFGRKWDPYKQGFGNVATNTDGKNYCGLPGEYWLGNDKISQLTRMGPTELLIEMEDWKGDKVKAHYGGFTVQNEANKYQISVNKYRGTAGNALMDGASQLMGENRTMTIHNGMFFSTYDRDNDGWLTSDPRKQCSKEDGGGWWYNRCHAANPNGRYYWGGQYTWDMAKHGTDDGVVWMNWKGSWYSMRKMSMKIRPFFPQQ
T1 sequence (P02679 27-437 isoform P02679-2 limits assumed): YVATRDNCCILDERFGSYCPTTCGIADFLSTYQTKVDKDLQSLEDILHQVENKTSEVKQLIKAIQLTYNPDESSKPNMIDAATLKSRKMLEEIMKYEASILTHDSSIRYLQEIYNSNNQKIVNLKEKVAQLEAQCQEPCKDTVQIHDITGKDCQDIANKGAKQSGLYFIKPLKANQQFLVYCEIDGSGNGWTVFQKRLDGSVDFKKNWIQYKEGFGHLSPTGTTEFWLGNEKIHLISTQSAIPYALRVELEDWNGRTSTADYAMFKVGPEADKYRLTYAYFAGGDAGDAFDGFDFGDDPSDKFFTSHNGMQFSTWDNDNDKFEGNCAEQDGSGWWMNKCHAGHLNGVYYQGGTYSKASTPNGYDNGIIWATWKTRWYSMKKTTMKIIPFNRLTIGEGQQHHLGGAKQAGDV
Description: Incorporation of radiolabelled substrates into fibrin was investigated by induction of an in vitro human plasma clot in the following manner. To a siliconised 5 ml glass vial was added, (a) 800 μl of Tris(hydroxymethyl)aminomethane buffered saline pH 7.5 containing calcium chloride (50 mM Tris, 150 mM sodium chloride, 4 mM calcium chloride.), (b) about 40 μl of physiological salt solution containing 100 units of thrombin per ml, (c) about 400 μl of human plasma containing the radiolabelled substrate at a concentration of typically 10 kBq/ml. To aid induction of clot a roughened glass rod was added to the reaction vial. Control vials were prepared similarly but with the omission of thrombin and calcium chloride.
After incubation of the test solution at ambient laboratory temperature (ca. 20° C.) for 60 minutes the reaction was discontinued with the addition of about 400 μl of a cold solution of 33.5 mM ethylenediaminetetra-acetic acid disodium salt. Clots were separated from serum by vacuum filtration onto […] nitrocellulose filters (pre-soaked in 1.5% BSA/tris(hydroxymethyl)aminoethae buffered saline pH 7.5 containing 0.1% Tween 20) and washed with about 2×10 ml of tris(hydroxymethyl)aminomethane buffered saline pH 7.5 containing Tween 20 to a final concentration of 0.1% v/v. The proportion of total radioactivity was calculated by counting in suitable detection apparatus.
The fraction of radioactivity retained on the filter, after subtraction of the non-specific binding determined from the control, is a measure of incorporation into the filtered clots.

[3] = Aged Clots: injected 60 min post-induction
[4] = Fresh Clots: injected 5 min post-induction

| % specific uptake [2] | % retained (no thrombin) [2] | % retained (with thrombin) [2] | in vitro clot uptake (in words) [2] | Substance | Clot/blood ([1]; Aged Clots) | Clot/heart ([1]; Aged Clots) | Clot/liver ([1]; Aged Clots) | Clot/lung ([1]; Aged Clots) | % id/g (clot) [1, 3] | Rel. Conc. (cpm/g of clot by dose/g animal) [1, 3] | Clot/blood ([1]; Fresh Clots) | Clot/heart ([1]; Fresh Clots) | Clot/liver ([1]; Fresh Clots) | Clot/lung ([1]; Fresh Clots) | % id/g (clot) [1, 4] | Rel. Conc. (cpm/g of clot by dose/g animal) [1, 4] |
| --- | --- | --- | --- | --- | --- | --- | --- | --- | --- | --- | --- | --- | --- | --- | --- | --- |
| 48.0% | 0.2% | 48.2% | – | Ac-NQEQVSPLTLLKG-Pn216 (also: 99mTc complex) [^99mTc-Cmpd 19] | 14 | 13 | 6 | 5 | 3.2 ± 2.3 % id/g | 9.1 ± 7.1 | 3 | 29 | 17 | 7 | 2.5 ± 0.3 % id/g | 7.1 ± 1.2 |
| 42.8% | 2.7% | 44.5% | – | Fmoc-NQEQVSPYTLLKG-Pn216 (also: 99mTc complex) [^99mTc-Cmpd 9] | 8 | 21 | 6 | 7 | 3.7 ± 0.4 % id/g | 11.4 ± 1.5 | 13 | 32 | 13 | 12 | 8.8 ± 3.6 % id/g | 24.8 ± 9.6 |
| 63.7% | 4.3% | 68.0% | – | Z-NQEQVSP(I2-Y)TLLKG-Pn216 [^99mTc-Cmpd 25] | – | – | – | – | – | – | – | – | – | – | – | – |
| 55.1% | 8.2% | 63.3% | – | Fmoc-NQEQVSP(I-Y)TLLKG-Pn216 [^99mTc-Cmpd 26] | 7 | 31 | 54 | 12 | 4.0 ± 0.9 % id/g | 12.9 ± 3.5 | 16 | 38 | 16 | 11 | 14.1 ± 10 % id/g | 41.4 ± 28 |
| 20.3% | 0.7% | 21.0% | – | Pn44-CO(CH2)3CO-NQEQVSPYTLLKG-NH2 ({Pn44-Glutaryl}-NQEQVSPYTLLKG-NH2; also: 99mTc complex) [^99mTc-Cmpd 38] | 3 | 1 | 2 | 0.5 | 0.8 ± 0.3 % id/g | 2.4 ± 0.7 | 5 | 15 | 3 | 6 | 1.9 ± 0.5 % id/g | 5.4 ± 1.5 |
| 28.6% | 0.1% | 28.7% | – | Ac-LGPGQSKVIG-Pn44 (also: 99mTc complex) [^99mTc-Cmpd 45] | 8 | 11 | 3 | 5 | 2.0 ± 0.8 % id/g | 5.7 ± 2.3 | 6 | 10 | 3 | 5 | 2.0 ± 0.5 % id/g | 5.5 ± 1.3 |
| 63.8% | 0.1% | 63.9% | – | Ac-NQEQVSP(D-Y)TLL(D-K)βAla-Pn216 [^99mTc-Cmpd 33] | 16 | 24 | 16 | 9 | 2.2 ± 0.6 % id/g | 6.7 ± 1.6 | 11 | 32 | 28 | 16 | 2.7 ± 0.2 % id/g | 7.8 ± 0.6 |
| 8.6% | 0.1% | 8.7% | significant reduction in uptake | Pn216-CO(CH2)3CO-G(D-K)(D-L)(D-L)(D-T)(D-Y)(D-P)(D-S)(D-V)NH2 [^99mTc-Cmpd 36] | 0.6 | 18 | 4 | 10 | 0.1 ± 0.02 % id/g | 0.2 ± 0.1 | 1 | 3 | 4 | 1 | 0.2 ± 0.1 % id/g | 0.7 ± 0.3 |
| 10.5% | 0.1% | 10.6% | significant reduction in uptake | Ac-GQDPVKG-Pn216 (also: 99mTc complex) [^99mTc-Cmpd 48] | 1 | 32 | 26 | 109 | 0.2 ± 0.04 % id/g | 0.8 ± 0.2 | 0.6 | 2 | 3 | 0.9 | 0.3 ± 0.2 % id/g | 1.0 ± 0.5 |
| 13.2% | 0.1% | 13.3% | – | Ac-NQEQVSPYTLLKG-(PEG)3.4k-Pn44 (Ac-NQEQVSPYTLLKG-{PEG 3.4k-Pn44}; also: 99mTc complex) [^99mTc-Cmpd 40] | – | – | – | – | – | – | – | – | – | – | – | – |
| 14.7% | 0.2% | 14.9% | – | Ac-NQEQV(D-S)P(D-Y)TLL(D-K)G-Pn216 [^99mTc-Cmpd 30] | – | – | – | – | – | – | – | – | – | – | – | – |
| 64.3% | 4.3% | 68.6% | – | NQEQVSPYTLLKG-Pn216 (also: 99mTc complex) [^99mTc-Cmpd 6] | – | – | – | – | – | – | – | – | – | – | – | – |
| 9.7% | 0.1% | 9.8% | significant reduction in uptake | Z-NQEQVSPYG-Pn216 ({code Z}-NQEQVSPYG-Pn216; reading uncertain; also: 99mTc complex, printed as Z-NQEQVSPYG-Pn216) [^99mTc-Cmpd 18] | – | – | – | – | – | – | – | – | – | – | – | – |
